Test results taken from publication PMC8344022, “Small-molecule inhibitor of AF9/ENL-DOT1L/AF4/AFF4 interactions suppresses malignant gene expression and tumor growth” (Theranostics, 2021).
Several values for one entry are separate records, joined by “and”; a condition that tells them apart may be missing. Equal entries are not always repeated. Where two headings read alike, the source gives them in different places.

Key:
Kasumi-1 cells = test: Antiproliferation assay (XTT); assay type: cell-based; conditions: Homo sapiens, 168 h, 7-day incubation, read-out: Cytotoxicity EC50
Procedure: (§1) Antiproliferation assay. Proliferation inhibition assays for suspension blood cancer cells were performed using an XTT assay kit (Roche). Proliferation inhibition assays for solid tumor cell lines MCF-7, MDA-MB-231, Panc1, Panc28 were performed using an MTT assay (Sigma). The antiproliferation EC50 values were determined using Prism 5 and the reported results were the mean values of at least three independent experiments. The incubation time for compound 1 was 7 days and that for EPZ4777 was 14 days.

Molm-13 cells = test: Antiproliferation assay (XTT); assay type: cell-based
Procedure: as §1

U266 cells = test: Antiproliferation assay (XTT); assay type: cell-based; conditions: Homo sapiens, U-266, 168 h, 7-day incubation, read-out: Cytotoxicity EC50
Procedure: as §1

Jurkat cells = test: Antiproliferation assay (XTT); assay type: cell-based; conditions: Homo sapiens, 168 h, 7-day incubation, read-out: Cytotoxicity EC50
Procedure: as §1

HL60 cells = test: Antiproliferation assay (XTT); assay type: cell-based; conditions: Homo sapiens, HL-60, 168 h, 7-day incubation, read-out: Cytotoxicity EC50
Procedure: as §1

RPMI-8226 cells = test: Antiproliferation assay (XTT); assay type: cell-based; conditions: Homo sapiens, 168 h, 7-day incubation, read-out: Cytotoxicity EC50
Procedure: as §1

THP-1 cells = test: Antiproliferation assay (XTT); assay type: cell-based; conditions: Homo sapiens, 168 h, 7-day incubation, read-out: Cytotoxicity EC50
Procedure: as §1

MV4;11 cells = test: Antiproliferation assay (XTT); assay type: cell-based; conditions: Homo sapiens, 168 h, 7-day incubation, read-out: Cytotoxicity EC50
Procedure: as §1

AF9-DOT1L interaction = biological target: T1, AF9-DOT1L interaction (Homo sapiens, UniProt P42568); test: Fluorescence polarization (FP) inhibition assay, AF9-DOT1L; assay type: binding
T1 construct: cDNA for human AF9 AHD domain (475-568) and ENL AHD domain (489-559) was synthesized; made in house; host or cells: E. coli BL21(DE3)
T1 sequence (P42568 475-568): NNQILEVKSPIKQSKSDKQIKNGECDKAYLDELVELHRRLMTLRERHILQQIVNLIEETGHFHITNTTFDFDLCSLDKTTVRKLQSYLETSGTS
Description: We developed an Alpha (amplified luminescent proximity homogeneous assay) assay to determine the binding and inhibition of the PPI between maltose-binding protein (MBP)-tagged AF9 AHD and a biotin-labeled DOT1L peptide, using AlphaLisa streptavidin donor beads and anti-MBP acceptor beads. Laser excitation to the donor beads generates singlet oxygen radicals, which can travel for <200 nm in solution and cannot reach the free acceptor beads. The PPI brings the DOT1L coated donor beads and AHD coated acceptor beads together, allowing the radicals to activate the acceptor beads and produce luminescence. […] We also developed a fluorescence polarization (FP) assay. A fluorescein-labeled DOT1L peptide has a higher freedom in solution with a lower polarization value.
Fluorescence polarization assay. It was performed in 96-well black microplates with each well containing a Fluorescein-labeled peptide (2 nM) and increasing concentration of a AF9/ENL protein in a buffer (20 mM HEPES, pH 7.5, 0.01% Triton X-100, 100 µL) for Kd determination. For IC50 determination, a Fluorescein-labeled peptide (2 nM), AF9/ENL protein (100 nM) and increasing concentration of a compound in the same buffer were placed in each well. Upon incubation of 1h, the FP value of each well was determined using a Tecan SPARK microplate reader. Data were similarly processed to obtain Kd or IC50 values.

[1] = tested on: cytoplasmic protein levels in Molm-13 cells; test: Western blot of cytoplasmic proteins; assay type: cell-based; conditions: 3 days
Procedure: (§2) Figure S4. The cytoplasmic protein levels after treatment with Cpd-1 for 3 days. (A) In contrast to the protein
(§3) me2, ENL and AFF4 in MV4;11 cells, except for ENL at 15 µM.
(§4) (1 picture or pasted object on this page, not shown here)

[2] = tested on: cytoplasmic protein levels in MV4;11 cells; test: Western blot of cytoplasmic proteins; assay type: cell-based; conditions: 3 days, except for ENL at 15 µM
Procedure: as §2, §3, §4

AF9-AFF4 interaction = biological target: T2, AF9-AFF4 interaction (Homo sapiens, UniProt P42568); test: Alpha assay, AF9-AFF4 interaction; assay type: binding; conditions: read-out: IC50, inhibition of AF9-AFF4 interaction
T2 construct: cDNA for human AF9 AHD domain (475-568) and ENL AHD domain (489-559) was synthesized; made in house; host or cells: E. coli BL21(DE3)
Procedure: (§5) ENL is also a major MLL fusion partner (~10%). The AHD domains of human ENL and AF9 share a high homology with 82% identity and 89% similarity (Figure S1A). […] Our attempts to develop an Alpha assay for ENL-DOT1L failed. […] Compound 1's activity against ENL-DOT1L was therefore not determined.
(§6) Alpha assays. Alpha assays were developed using Perkin-Elmer AlphaLisa anti-MBP kit, which contains streptavidin donor beads and anti-MBP acceptor beads. The assay was performed using a MBP-protein (5 nM), a biotinylated peptide (40 nM), and increasing concentrations of a compound in 25 µL buffer (PBS with 0.5 % BSA, pH 7.5) in 384-well plates according to the manufacturer's protocol and measured with a Tecan SPARK microplate reader. Data were imported into Prism (version 5.0), and IC50 values from 3 independent experiments with standard deviation were obtained by using a standard dose-response curve fitting.

ENL-AF4 interaction = biological target: T3, ENL-AF4 interaction (Homo sapiens, UniProt Q03111); test: Alpha assay, ENL-AF4 interaction; assay type: binding; conditions: read-out: IC50, inhibition of ENL-AF4 interaction
T3 construct: ENL AHD domain (489-559) was synthesized (by Genscript) and inserted into the pMAL c5X expression plasmid; made in house; host or cells: E. coli BL21(DE3)
Procedure: as §5, §6

cancer cells = test: Antiproliferation assays, cancer cell panel; assay type: cell-based
Procedure: The differential antiproliferation activities of compound 1 is consistent with its ability to suppress DOT1L/H3K79 methylation and SEC regulated gene expression, which are critical to MLL-r leukemia and Myc-driven blood cancer, but largely dispensable to other solid tumor cells.
as §1

LSD1 = LSD1 (Homo sapiens, UniProt O60341); test: LSD1 enzyme inhibition; assay type: biochemical; conditions: at 100 µM (Figure S3: 30 or 100 µM)
Procedure: Inhibition of DOT1L, LSD1 and p300 was performed using our previously reported methods, [37], [38].
LSD1, and p300 histone acetyltransferase at 30 or 100 µM, using our previous reported methods [Ref. 36, 37,
as §4

T3 sequence (Q03111 489-559): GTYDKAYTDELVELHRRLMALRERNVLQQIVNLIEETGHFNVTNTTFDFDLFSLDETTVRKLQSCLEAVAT

CC(C)(C)c1ccc(-n2cc(C(=O)NC3CCNCC3)nc2-c2ccccc2)cc1 [Compound 1]
EC50 (Kasumi-1 cells): 8.9 ± 0.3 µM | Inhibition of cell proliferation (Molm-13 cells; 10 μM, Day-2 or 3): did not significantly inhibit | inhibition at 10 µM (Molm-13 cells; Homo sapiens, 10 μM, Day-5, read-out: Inhibition of cell proliferation): > 90% | EC50 (Molm-13 cells; Homo sapiens, 168 h, 7-day incubation, read-out: Cytotoxicity EC50): 4.9 ± 0.1 µM | EC50 (U266 cells): 7.9 ± 0.4 µM | EC50 (Jurkat cells): 9.7 ± 0.3 µM | EC50 (HL60 cells): 7.3 ± 0.1 µM | EC50 (RPMI-8226 cells): 3.3 ± 0.1 µM | EC50 (THP-1 cells): 11.4 ± 0.6 µM | EC50 (MV4;11 cells): 4.7 ± 0.4 µM | IC50 (AF9-DOT1L interaction): 3.2 µM | Cytoplasmic levels of H3K79me1 and me2, ENL and AFF4 [1]: did not significantly reduce | Cytoplasmic protein levels of H3K79me1 and me2, ENL and AFF4 [2]: did not significantly reduce | IC50 (AF9-AFF4 interaction): 2.5 ± 0.1 µM | IC50 (ENL-AF4 interaction): 0.9 µM and 0.94 µM | EC50 (cancer cells; 168 h, MLL-r leukemia (MV4;11, Molm-13, THP-1) and Myc-driven blood cancer cells, 7 days, read-out: EC50 against proliferation (range)): 3 to 11 µM | Antiproliferative activity against solid tumor cells (cancer cells; MCF-7, MDA-MB-231 and two pancreatic cancer cells): reduced activity | EC50 (cancer cells; MLL-r leukemia cells Molm-13, MV4;11 and THP-1, read-out: EC50s against proliferation (range)): 4.7 to 11 µM | EC50 (cancer cells; Myc-driven blood cancer cells HL60, Kasumi-1, Jurkat, RPMI8226, U266, read-out: EC50s against proliferation (range)): 3.3 to 9.7 µM | Inhibition of LSD1 enzyme activity (LSD1): did not significantly inhibit
